Legend:
Brain [1] = assay: Biodistribution in Sprague-Dawley rat brain at 2 hrs by gamma counting analysis; assay type: ADME, organism-based; details: in vivo
Thyroid gland [2] = assay: Biodistribution in Sprague-Dawley rat thyroid assessed per organ at 24 hrs by gamma counting analysis; assay type: ADME, organism-based; details: in vivo
[3] = Ratio of drug level in heart to lung in Sprague-Dawley rat measured at 2 hrs; details: in vivo
Heart [4] = assay: Biodistribution in Sprague-Dawley rat heart at 2 hrs by gamma counting analysis; assay type: ADME, organism-based; details: in vivo
Thyroid gland [5] = assay: Biodistribution in Sprague-Dawley rat thyroid assessed per organ at 2 hrs by gamma counting analysis; assay type: ADME, organism-based; details: in vivo
Kidney = assay: Biodistribution in Sprague-Dawley rat kidney at 24 hrs by gamma counting analysis; assay type: ADME, organism-based; details: in vivo
Lung [6] = assay: Biodistribution in Sprague-Dawley rat lung at 2 hrs by gamma counting analysis; assay type: ADME, organism-based; details: in vivo
Liver [7] = assay: Biodistribution in Sprague-Dawley rat liver at 2 hrs by gamma counting analysis; assay type: ADME, organism-based; details: in vivo
Heart [8] = assay: Biodistribution in Sprague-Dawley rat heart at 24 hrs by gamma counting analysis; assay type: ADME, organism-based; details: in vivo
Lung [9] = assay: Biodistribution in Sprague-Dawley rat lung at 24 hrs by gamma counting analysis; assay type: ADME, organism-based; details: in vivo
Blood [10] = assay: Biodistribution in Sprague-Dawley rat blood at 24 hrs by gamma counting analysis; assay type: ADME, organism-based; details: in vivo
[11] = Ratio of drug level in heart to liver in Sprague-Dawley rat measured at 2 hrs; details: in vivo
Blood [12] = assay: Biodistribution in Sprague-Dawley rat blood at 2 hrs by gamma counting analysis; assay type: ADME, organism-based; details: in vivo
Brain [13] = assay: Biodistribution in Sprague-Dawley rat brain at 24 hrs by gamma counting analysis; assay type: ADME, organism-based; details: in vivo
Liver [14] = assay: Biodistribution in Sprague-Dawley rat liver at 24 hrs by gamma counting analysis; assay type: ADME, organism-based; details: in vivo
Muscle tissue = assay: Biodistribution in Sprague-Dawley rat muscle at 24 hrs by gamma counting analysis; assay type: ADME, organism-based; details: in vivo
Spleen = assay: Biodistribution in Sprague-Dawley rat spleen at 24 hrs by gamma counting analysis; assay type: ADME, organism-based; details: in vivo
[15] = Ratio of drug level in heart to blood in Sprague-Dawley rat measured at 2 hrs; assay type: ADME

Drug uptake (Brain [1]): 0.34 %Idose/kg
Drug uptake (Thyroid gland [2]): 3.78 %ID
Ratio [3]: 9.32
Drug uptake (Heart [4]): 2.96 %Idose/kg
Drug uptake (Thyroid gland [5]): 0.34 %ID
Drug uptake (Kidney): Active
Drug uptake (Lung [6]): 0.33 %Idose/kg
Drug uptake (Liver [7]): 1.17 %Idose/kg
Drug uptake (Heart [8]): Active
Drug uptake (Lung [9]): Active
Drug uptake (Blood [10]): 0.06 % ID/g
Ratio [11]: 2.57
Drug uptake (Blood [12]): 0.14 %Idose/kg
Drug uptake (Brain [13]): Active
Drug uptake (Liver [14]): Active
Drug uptake (Muscle tissue): Active
Drug uptake (Spleen): Active
Kp at 2 h [15]: 22.4
Structure (SMILES): COc1cc2c(cc1OC)[C@@H]1C(=O)c3ccc4c(c3O[C@@H]1CO2)C[C@H](/C(C)=C\[125I])O4

— ChEMBL document CHEMBL2390945, “Synthesis and characterization of 123I-CMICE-013: a potential SPECT myocardial perfusion imaging agent” (Bioorg Med Chem, 2013)
